Laboratory results as given in patent US9040663B2, “Melanocortin receptor-specific peptides” (AstraZeneca AB, priority 2009, dated 2015).
Where two headings read alike, the source gives them in different places. Positions of bridges follow the written chain, without caps; N, C: chain ends. Non-standard residues stand in square brackets, D forms with d. Residues, ends and D or L forms follow the SMILES beside them. dPhe(4-CN) = N#Cc1ccc(C[C@@H](N)C(=O)O)cc1; Orn = NCCC[C@H](N)C(=O)O

How the values were obtained:
hMC4-R [1] = target: T1, hMC4-R (Homo sapiens (Human), UniProt P32245); test: Competitive inhibition binding assay using [I125]-NDP-α-MSH, hMC4-R; settings: membranes of HEK-293 cells expressing recombinant hMC4-R, read-out: MC4-R Ki
MC1-R = test: Competitive inhibition binding assay using [I125]-NDP-α-MSH, MC1-R; settings: membranes of B-16 mouse melanoma cells (endogenous MC1-R), in some instances HEK-293 hMC1-R
Description: 7.1 Competitive Inhibition Assay using [I^125]-NDP-α-MSH.
A competitive inhibition binding assay was performed for exemplified peptides according to the invention using membrane homogenates prepared from HEK-293 cells that express recombinant hMC4-R, hMC3-R, or hMC5-R, and from B-16 mouse melanoma cells (containing endogenous MC1-R). In some instances, HEK-293 cells that express recombinant hMC1-R were employed. Assays were performed in 96 well GF/B Millipore multiscreen filtration plates (MAFB NOB10) pre-coated with 0.5% bovine serum albumin (Fraction V). Membrane homogenates were incubated with 0.2 nM (for hMC4-R) 0.4 nM (for MC3-R and MC5-R) or 0.1 nM (for mouse B16 MC1-R or hMC1-R) [I^125]-NDP-α-MSH (Perkin Elmer) and increasing concentrations of test peptides of the present invention in buffer containing 25 mM HEPES buffer (pH 7.5) with 100 mM NaCl, 2 mM CaCl2, 2 mM MgCl2, 0.3 mM 1,10-phenanthroline, and 0.2% bovine serum albumin. After incubation for 60 minutes at 37° C., the assay mixture was filtered and the membranes washed three times with ice-cold buffer. Filters were dried and counted in a gamma counter for bound radioactivity. […] Maximal specific binding (100%) was defined as the difference in radioactivity (cpm) bound to cell membranes in the absence and presence of 1 μM NDP-α-MSH. […] Each assay was conducted in triplicate and the actual mean values are described, with results less than 0% reported as 0%. Ki values for test peptides of the present invention were determined using Graph-Pad Prism® curve-fitting software.

hMC4-R [2] = target: T1, hMC4-R; test: High and low density hMC4-R functional assay (cAMP, HEK293-T-REx-MC4-R cells); type: cell-based; settings: for Emax: NDP-α-MSH = 100%, read-out: Intrinsic Activity (%)
[3] = 0.1 ng/mL Doxycycline (low density hMC4-R system)
[4] = 10 ng/mL Doxycycline (high density hMC4-R system)

T1 sequence (P32245 whole entry): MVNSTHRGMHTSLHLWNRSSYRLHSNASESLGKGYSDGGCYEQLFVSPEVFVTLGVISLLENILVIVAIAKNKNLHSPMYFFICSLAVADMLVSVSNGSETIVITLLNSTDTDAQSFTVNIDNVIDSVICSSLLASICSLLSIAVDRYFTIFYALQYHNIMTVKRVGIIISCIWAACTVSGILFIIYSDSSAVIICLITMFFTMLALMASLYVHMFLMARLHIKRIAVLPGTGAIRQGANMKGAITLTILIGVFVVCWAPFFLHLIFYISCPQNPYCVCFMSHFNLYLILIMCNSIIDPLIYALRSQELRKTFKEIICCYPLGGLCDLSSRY

Ki (hMC4-R [1]) [nM]	Ki (MC1-R) [nM]	Emax (hMC4-R [2]; [3]) [%]	EC50 (hMC4-R [2]; [4]) [nM]	Emax (hMC4-R [2]; [4]) [%]	EC50 (hMC4-R [2]; [3]) [nM]	Compound
0.6	6	31	0.2	99	0.325	CC(=O)N[C@H](CCCNC(=N)N)C(=O)N[C@H]1CCCNC(=O)CC[C@@H](C(N)=O)NC(=O)[C@H](Cc2c[nH]c3ccccc23)NC(=O)[C@H](CCCNC(=N)N)NC(=O)[C@@H](Cc2ccc(C#N)cc2)NC(=O)[C@H](Cc2c[nH]cn2)NC1=O [Example 52, Ac-D-Arg-cyclo(Orn-His-D-Phe(4-CN)-Arg-Trp-Glu)-NH2]
0.95	0.75	86	0.13	90	0.13	CC(=O)N[C@H](CCCNC(=N)N)C(=O)N[C@H]1CCCNC(=O)CC[C@@H](C(N)=O)NC(=O)[C@H](Cc2c[nH]c3ccccc23)NC(=O)[C@H](CCCNC(=N)N)NC(=O)[C@@H](Cc2ccccc2F)NC(=O)[C@H](Cc2c[nH]cn2)NC1=O [Example 53, Ac-D-Arg-cyclo(Orn-His-D-Phe(2-F)-Arg-Trp-Glu)-NH2]
20	23	28	0.8	98	10	CC(=O)N[C@@H](CCCNC(=N)N)C(=O)N[C@H]1CCC(=O)NCCC[C@@H](C(=O)O)NC(=O)[C@H](Cc2c[nH]c3ccccc23)NC(=O)[C@H](CCCNC(=N)N)NC(=O)[C@@H](Cc2cccc(Cl)c2)NC(=O)[C@H](CCCN)NC1=O [Example 55, Ac-Arg-cyclo(Glu-Orn-D-Phe(3-Cl)-Arg-Trp-Orn)-OH]
11	30	41	0.3	98	5	CC(=O)NCC[C@@H]1NC(=O)[C@@H](NC(=O)[C@H](CCCNC(=N)N)NC(C)=O)CCC(=O)NCCC[C@@H](C(N)=O)NC(=O)[C@H](Cc2c[nH]c3ccccc23)NC(=O)[C@H](CCCNC(=N)N)NC(=O)[C@@H](Cc2ccccc2Cl)NC1=O [Example 56, Ac-Arg-cyclo(Glu-Dab(Acetyl)-D-Phe(2-Cl)-Arg-Trp-Orn)-NH2]
0.65	1	89	0.095	100	0.25	CC(=O)N[C@H](CCCNC(=N)N)C(=O)N[C@H]1CCCNC(=O)CC[C@@H](C(N)=O)NC(=O)[C@H](Cc2c[nH]c3ccccc23)NC(=O)[C@H](CCCNC(=N)N)NC(=O)[C@@H](Cc2ccc(F)cc2)NC(=O)[C@H](Cc2c[nH]cn2)NC1=O [Example 57, Ac-D-Arg-cyclo(Orn-His-D-Phe(4-F)-Arg-Trp-Glu)-NH2]
1	89	62	0.14	95	0.45	CC(=O)N[C@@H](CCCNC(=N)N)C(=O)N[C@H]1CCC(=O)NCCC[C@@H](C(N)=O)NC(=O)[C@H](Cc2c[nH]c3ccccc23)NC(=O)[C@H](CCCNC(=N)N)NC(=O)[C@@H](Cc2ccc(F)cc2)NC(=O)[C@@H]2C[C@@H](O)CN2C1=O [Example 60, Ac-Arg-cyclo(Glu-Hyp-D-Phe(4-F)-Arg-Trp-Orn)-NH2]
0.35	12	30	0.157	93	0.37	CC(=O)N[C@@H](CCCNC(=N)N)C(=O)N[C@H]1CCC(=O)NCCC[C@@H](C(N)=O)NC(=O)[C@H](Cc2c[nH]c3ccccc23)NC(=O)[C@H](CCCNC(=N)N)NC(=O)[C@@H](Cc2ccccc2Cl)NC(=O)[C@H]([C@@H](C)OCc2ccccc2)NC1=O [Example 63, Ac-Arg-cyclo(Glu-Thr(Bzl)-D-Phe(2-Cl)-Arg-Trp-Orn)-NH2]
3	53	57	0.08	90	1	CC(=O)N[C@@H](CCCNC(=N)N)C(=O)N[C@H]1CCC(=O)NCCC[C@@H](C(N)=O)NC(=O)[C@H](Cc2c[nH]c3ccccc23)NC(=O)[C@H](CCCNC(=N)N)NC(=O)[C@@H](Cc2ccccc2F)NC(=O)[C@@H]2C[C@@H](O)CN2C1=O [Example 64, Ac-Arg-cyclo(Glu-Hyp-D-Phe(2-F)-Arg-Trp-Orn)-NH2]

More lines, now with the values behind:

Compound	Ki (hMC4-R [1]) [nM]	Ki (MC1-R) [nM]	Emax (hMC4-R [2]; [3]) [%]	EC50 (hMC4-R [2]; [4]) [nM]	Emax (hMC4-R [2]; [4]) [%]	EC50 (hMC4-R [2]; [3]) [nM]
CC(=O)N[C@@H](CCCNC(=N)N)C(=O)N[C@H]1CCC(=O)NCCC[C@@H](C(N)=O)NC(=O)[C@H](Cc2c[nH]c3ccccc23)NC(=O)[C@H](CCCNC(=N)N)NC(=O)[C@@H](Cc2ccc(C#N)cc2)NC(=O)[C@@H]2CCCN2C1=O [Example 39, Ac-Arg-cyclo(Glu-Pro-D-Phe(4-CN)-Arg-Trp-Orn)-NH2]	4	1550	4	1	79	–
CC(=O)N[C@@H](CCCNC(=N)N)C(=O)N[C@H]1CCC(=O)NCCC[C@@H](C(N)=O)NC(=O)[C@H](Cc2c[nH]c3ccccc23)NC(=O)[C@H](CCCNC(=N)N)NC(=O)[C@@H](Cc2ccc(C#N)cc2)NC(=O)[C@@H]2C[C@@H](O)CN2C1=O [Example 40, Ac-Arg-cyclo(Glu-Hyp-D-Phe(4-CN)-Arg-Trp-Orn)-NH2]	2	880	8	0.5	93	–
CC(=O)N[C@@H](CCCNC(=N)N)C(=O)N[C@H]1CCC(=O)NCCC[C@@H](C(N)=O)NC(=O)[C@H](Cc2c[nH]c3ccccc23)NC(=O)[C@H](CCCNC(=N)N)NC(=O)[C@@H](Cc2ccc(C#N)cc2)NC(=O)[C@H](C)NC1=O [Example 41, Ac-Arg-cyclo(Glu-Ala-D-Phe(4-CN)-Arg-Trp-Orn)-NH2] (Ac-REA[dPhe(4-CN)]RW[Orn]-NH2; lactam 2-7)	3	4300	5	0.8	84	–
CC(=O)N[C@@H](CCCNC(=N)N)C(=O)N[C@H]1CCC(=O)NCCC[C@@H](C(N)=O)NC(=O)[C@H](Cc2c[nH]c3ccccc23)NC(=O)[C@H](CCCNC(=N)N)NC(=O)[C@@H](Cc2ccc(C#N)cc2)NC(=O)[C@H]([C@@H](C)O)NC1=O [Example 44, Ac-Arg-cyclo(Glu-Thr-D-Phe(4-CN)-Arg-Trp-Orn)-NH2]	18	1620	22	–	99	11
CC(=O)N[C@@H](CCCNC(=N)N)C(=O)N[C@H]1CCC(=O)NCCC[C@@H](C(N)=O)NC(=O)[C@H](Cc2c[nH]c3ccccc23)NC(=O)[C@H](CCCNC(=N)N)NC(=O)[C@@H](Cc2ccc(C#N)cc2)NC(=O)[C@H](CO)NC1=O [Example 45, Ac-Arg-cyclo(Glu-Ser-D-Phe(4-CN)-Arg-Trp-Orn)-NH2]	10	10000	12	0.45	87	–
CC(=O)N[C@@H](CCCNC(=N)N)C(=O)N[C@H]1CCC(=O)NCCC[C@@H](C(N)=O)NC(=O)[C@H](Cc2c[nH]c3ccccc23)NC(=O)[C@H](CCCNC(=N)N)NC(=O)[C@@H](Cc2ccccc2Cl)NC(=O)[C@H](COCc2ccccc2)NC1=O [Example 47, Ac-Arg-cyclo(Glu-Ser(Bzl)-D-Phe(2-Cl)-Arg-Trp-Orn)-NH2]	0.3	25	36	0.373	100	0.31
CC(=O)N[C@@H](CCCNC(=N)N)C(=O)N[C@H]1CCC(=O)NCCC[C@@H](C(N)=O)NC(=O)[C@H](Cc2c[nH]c3ccccc23)NC(=O)[C@H](CCCNC(=N)N)NC(=O)[C@@H](Cc2ccccc2Cl)NC(=O)[C@H](Cc2cccc(C(N)=O)c2)NC1=O [Example 48, Ac-Arg-cyclo(Glu-Phe(3-C(═O)—NH2)-D-Phe(2-Cl)-D-Phe-Arg-Trp-Orn)-NH2]	15	545	6	4	93	–
CC(=O)N[C@@H](CCCNC(=N)N)C(=O)N[C@H]1CCC(=O)NCCC[C@@H](C(=O)O)NC(=O)[C@H](Cc2c[nH]c3ccccc23)NC(=O)[C@H](CCCNC(=N)N)NC(=O)[C@@H](Cc2ccccc2Cl)NC(=O)[C@H](CCCN)NC1=O [Example 49, Ac-Arg-cyclo(Glu-Orn-D-Phe(2-Cl)-Arg-Trp-Orn)-OH]	8	8	74	0.235	93	2
CC(=O)N[C@H](CCCNC(=N)N)C(=O)N[C@H]1CCCNC(=O)CC[C@@H](C(N)=O)NC(=O)[C@H](Cc2c[nH]c3ccccc23)NC(=O)[C@H](CCCNC(=N)N)NC(=O)[C@@H](Cc2cccc(Cl)c2)NC(=O)[C@H](Cc2c[nH]cn2)NC1=O [Example 51, Ac-D-Arg-cyclo(Orn-His-D-Phe(3-Cl)-Arg-Trp-Glu)-NH2]	0.6	3	22	0.4	95	0.64
